Experimental data published in ChEMBL document CHEMBL1944626, “Design, synthesis and biological evaluation of N-phenylsulfonylnicotinamide derivatives as novel antitumor inhibitors” (Bioorg Med Chem, 2012).
The source made the active and inactive calls. The rule behind the calls is not given here.

Assays:
[1] = tested on: MCF7; assay: Antiproliferative activity against human MCF7 cells after 48 hrs by MTT assay; assay type: functional, cell-based; details: MCF7, 48 h
[2] = biological target: T1, Epidermal growth factor receptor (Homo sapiens, UniProt P00533); assay: Inhibition of autophosphorylation of recombinant His-tagged EGFR expressed in baculovirus infected Sf9 cells after 1 hr by DELFIA/time-resolved fluorimetry assay
[3] = biological target: T1, Epidermal growth factor receptor; assay: Inhibition of EGF-stimulated EGFR autophosphorylation in human MCF7 cells at >1.5 uM treated 1 hr before EGF challenge measured after 15 mins by Western immunoblot analysis; assay type: cell-based

T1 sequence (P00533 whole entry): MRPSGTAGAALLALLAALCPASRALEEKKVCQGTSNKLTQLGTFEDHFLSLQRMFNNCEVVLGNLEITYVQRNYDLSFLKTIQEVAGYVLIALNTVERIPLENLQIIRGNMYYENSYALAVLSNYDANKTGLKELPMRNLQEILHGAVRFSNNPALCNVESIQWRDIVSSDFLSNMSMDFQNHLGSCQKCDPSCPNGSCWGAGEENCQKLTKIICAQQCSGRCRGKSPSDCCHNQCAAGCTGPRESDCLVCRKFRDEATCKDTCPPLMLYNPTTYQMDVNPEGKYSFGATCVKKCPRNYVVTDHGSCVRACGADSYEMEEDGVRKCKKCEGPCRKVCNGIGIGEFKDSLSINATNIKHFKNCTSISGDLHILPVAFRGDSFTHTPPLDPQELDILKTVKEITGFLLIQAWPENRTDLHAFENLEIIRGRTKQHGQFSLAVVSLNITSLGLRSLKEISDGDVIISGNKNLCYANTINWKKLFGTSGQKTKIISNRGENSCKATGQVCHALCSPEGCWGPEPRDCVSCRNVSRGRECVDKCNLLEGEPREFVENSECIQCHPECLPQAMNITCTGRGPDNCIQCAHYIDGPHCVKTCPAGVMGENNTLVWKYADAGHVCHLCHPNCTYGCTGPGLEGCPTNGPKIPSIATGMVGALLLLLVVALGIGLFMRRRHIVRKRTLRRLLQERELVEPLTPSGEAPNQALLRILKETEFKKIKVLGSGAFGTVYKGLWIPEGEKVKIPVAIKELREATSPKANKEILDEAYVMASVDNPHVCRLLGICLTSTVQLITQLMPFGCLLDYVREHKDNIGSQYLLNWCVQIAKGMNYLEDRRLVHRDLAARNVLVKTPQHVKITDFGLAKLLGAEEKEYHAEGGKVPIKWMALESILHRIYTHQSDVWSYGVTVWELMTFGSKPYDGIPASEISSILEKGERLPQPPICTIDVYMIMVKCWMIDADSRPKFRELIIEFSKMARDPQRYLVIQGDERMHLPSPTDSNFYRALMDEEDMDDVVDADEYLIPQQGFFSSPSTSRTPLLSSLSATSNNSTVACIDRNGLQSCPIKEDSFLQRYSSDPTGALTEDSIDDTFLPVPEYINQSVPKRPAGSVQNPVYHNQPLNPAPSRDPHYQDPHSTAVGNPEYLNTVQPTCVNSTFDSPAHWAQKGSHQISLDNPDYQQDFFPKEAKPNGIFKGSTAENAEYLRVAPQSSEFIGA

SMILES	IC50 [1]	IC50 [2]	inhibition [3]
O=C(NS(=O)(=O)c1ccc(F)cc1)c1cccnc1Cl	12.5 µM	28.7 µM	–
O=C(NS(=O)(=O)c1ccccc1)c1cccnc1	14.4 µM	> 30 µM	–
O=C(NS(=O)(=O)c1ccc(Br)cc1)c1ccc(Cl)nc1	9.05 µM	29.1 µM	–
O=C(NS(=O)(=O)c1ccc(Br)cc1)c1cccnc1	14.7 µM	> 30 µM	–
O=C(NS(=O)(=O)c1ccc(F)cc1)c1ccc(Cl)nc1	16.8 µM	> 30 µM	–
O=C(NS(=O)(=O)c1ccc(Cl)cc1)c1cncc(Br)c1	0.07 µM	0.09 µM	Active
O=C(NS(=O)(=O)c1ccc(F)cc1)c1cncc(Br)c1	0.98 µM	3.27 µM	–
Cc1ccc(S(=O)(=O)NC(=O)c2cccnc2)cc1	12 µM	24.8 µM	–
O=C(NS(=O)(=O)c1ccc(Br)cc1)c1cccnc1Cl	11.4 µM	15.7 µM	–
O=C(NS(=O)(=O)c1ccc(Cl)cc1)c1ccc(Cl)nc1	8.07 µM	18.1 µM	–
Cc1ccc(C(=O)NS(=O)(=O)c2ccccc2)c(Cl)n1	13.4 µM	21.6 µM	–
O=C(NS(=O)(=O)c1ccc(Cl)cc1)c1cccnc1	13 µM	25.4 µM	–
O=C(NS(=O)(=O)c1ccc(F)cc1)c1cccnc1	16 µM	> 30 µM	–
Cc1ccc(S(=O)(=O)NC(=O)c2ccc(Cl)nc2)cc1	17.2 µM	> 30 µM	–
O=C(NS(=O)(=O)c1ccc(Br)cc1)c1cncc(Br)c1	0.34 µM	2.08 µM	–
Cc1ccc(S(=O)(=O)NC(=O)c2cccnc2Cl)cc1	12.5 µM	27 µM	–
Cc1ccc(S(=O)(=O)NC(=O)c2ccc(C)nc2Cl)cc1	8.52 µM	15 µM	–
O=C(NS(=O)(=O)c1ccccc1)c1ccc(Cl)nc1	14.1 µM	> 30 µM	–
Cc1ccc(C(=O)NS(=O)(=O)c2ccc(Br)cc2)c(Cl)n1	1.97 µM	2.64 µM	–
O=C(NS(=O)(=O)c1ccccc1)c1cccnc1Cl	14 µM	> 30 µM	–
Cc1ccc(S(=O)(=O)NC(=O)c2cncc(Br)c2)cc1	9.37 µM	12.1 µM	–
O=C(NS(=O)(=O)c1ccc(Cl)cc1)c1cccnc1Cl	10.2 µM	19.8 µM	–
Cc1ccc(C(=O)NS(=O)(=O)c2ccc(Cl)cc2)c(Cl)n1	1.35 µM	1.19 µM	–
